Experimental data as given in paper PMC7081907, “Discovery and Selection of Hepatitis B Virus-Derived T Cell Epitopes for Global Immunotherapy Based on Viral Indispensability, Conservation, and HLA-Binding Strength” (Journal of Virology, 2020).
Marks after values point to notes of the source that are not given here.

Legend:
[1] = tested on: HBV-specific T cells; details: cumulative over papers, responder = positive multimer staining and/or IFN-γ ELISPOT, ref Hepitopes database [24], [49], cited from earlier work; for % responders (no. of responders/total no. of subjects tested), HCC: HBV-positive HCC patients; for % responders (no. of responders/total no. of subjects tested), Chronic: chronic HBV patients; for % responders (no. of responders/total no. of subjects tested), Acute: patients with acute/resolved HBV infection, asterisk = significantly more prevalent than in other groups;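 as to all read-outs here: responder rates refer to previously reported epitopes of HBx or polymerase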
[2] = biological target: HLA-A*24:02 (Homo sapiens, UniProt P04439, D101N/D140Y/D185E/E176V/E190D/F33S/G103R/G107R/I119L/I121M/I306V/K335N/L105A/L180Q/L300P/N151K/N90K/Q86E/Q94H/R106L/R138H/R89G/T104I/T345S/V100E/W191G/Y123F); assay: UV-based in vitro HLA binding assay (peptide exchange + HLA-I ELISA), HLA-A*24:02; details: conditional pHLA 0.53 μM, peptide 50 μM, 30 min 366-nm UV, absorbance 414 nm normalized to high-affinity positive control (100%), two exchanges, each in duplicate
Method: (§1) Next, the HLA-binding capacity of selected peptides was tested in a UV-based in vitro binding assay. […] HLA-A*11:01 and HLA-A*03:01 were both tested as members of the HLA-A*03 supertype since many HBV-infected patients are Asian and HLA-A*11:01 is more prevalent in this population than the supertype representative HLA-A*03:01, which is more prevalent in Caucasians ([72]). We identified 13 binders for HBx and 33 for Pol across HLA supertypes, including novel binders that have been described previously in the context of another HLA type (Fig. 5A to G, dotted underlining, and Fig. 5H). […] In contrast, binding of infrequently reported epitopes (Fig. 5, solid underlining) could not always be verified.
(§2) Synthetic peptides (Peptide 2.0 Inc.) of selected potential HLA binders were used in an in vitro binding assay as described previously ([96]). […] Subsequently, the peptide exchange efficiency was analyzed using an HLA-I enzyme-linked immunosorbent assay (ELISA), which detects beta-2-microglobulin of peptide-stabilized HLA-I complexes in an exchange reaction mixture. […] The reaction was stopped after 8 min (incubation at room temperature) by the addition of a 2% (wt/vol) oxalic acid dihydrate stop solution (Sanquin Reagents BV) and read in a Thermo Electron Multiskan Ascent ELISA reader at 414 nm. […] Every exchange mixture was measured in duplicate by the HLA-I ELISA. […]

[3] = tested on: PBMCs from blood donors who had previously resolved an HBV infection; assay: Immunogenicity: IFN-γ ELISA on peptide-expanded PBMCs of HBV resolvers; format: cell-based, human; details: for number of responsive donors as a fraction of the total number of subjects tested: PBMCs expanded 14 days, restimulated 48 h, 10 μg/ml/peptide, response = mean OD ≥ mean + 2 SD of DMSO; for IFN-γ production in response to peptide, in words: expanded PBMCs from 9 HBV resolvers, HLA-matched, single-peptide restimulation 48 h, 10 μg/ml, DMSO-subtracted
Method: Finally, the immunogenicity of all HBx- and Pol-derived binders was assessed to determine which binders would be most interesting for the development of an antigen-based HBV-targeting immunotherapy.
Briefly, PBMCs were isolated by Ficoll (GE Healthcare) density centrifugation from buffy coats of 9 donors who had previously resolved HBV infection. Buffy coats were provided by the local blood bank with corresponding 2-digit HLA types. Four-digit HLA typing was performed for 7 out of 9 donors using the global screening array (GSA) (Illumina through the Human Genomics Facility, Erasmus MC Rotterdam) (Table 3). All donors gave written informed consent. PBMCs were cultured in Iscove’s modified Dulbecco’s medium (IMDM) (Lonza) containing 2% human serum (Sanquin) and 50 IU/ml human interleukin-2 (hIL-2) (Miltenyi) in the presence of peptide pools of a maximum of 5 peptides of interest based on HLA matching at 10 μg/ml/peptide. After 14 days, 200,000 cells were restimulated with the peptides of interest for 48 h at 37°C with 10 μg/ml/peptide in triplicate. Supernatants from restimulations were subsequently used in a human IFN-γ (hIFN-γ) ELISA (BioLegend) according to the manufacturer’s instructions. Plates were read at a 450-nm wavelength using an Infinite 200Pro ELISA reader. hIFN-γ levels were calculated from background-subtracted optical density (OD) values (means from triplicates) using a supernatant derived from a previously successful restimulation with c18-27 that was quantified in a separate ELISA using the hIFN-γ standard provided by the manufacturer. HLA binders with a mean OD value of at least the mean plus 2 times the standard deviation (SD) of the dimethyl sulfoxide (DMSO) control were quantified.

[4] = tested on: cytotoxic T cells; details: HLA-A*24:02 peptide, ref Yamamiya et al. [89]; cited from earlier work
Text: We identified a few novel epitopes for which the sequence overlaps that of an epitope that has previously been described for the HLA type tested. […] It would now be interesting to investigate how responses to these epitope variants relate in CHB patients, especially since p755-764 has been the only HBV-derived epitope described for supertype HLA-A*24 until very recently. For HLA-A*24:02, we studied the binding cap ...

[5] = biological target: HLA-B*08:01 (Homo sapiens, UniProt P01889, A93T/A95T/D138N/E176V/E187T/K202T/Q94N/R180D/S35A/V36M/Y33D/Y91F); assay: UV-based in vitro HLA binding assay (peptide exchange + HLA-I ELISA), HLA-B*08:01; details: conditional pHLA 0.53 μM, peptide 50 μM, 30 min 366-nm UV, absorbance 414 nm normalized to high-affinity positive control (100%), two exchanges, each in duplicate
Text: Nonbound material was removed by washing. […] Every peptide was independently exchanged twice.

[6] = biological target: HLA-B*07:02 (Homo sapiens, UniProt P01889); assay: UV-based in vitro HLA binding assay (peptide exchange + HLA-I ELISA), HLA-B*07:02; details: conditional pHLA 0.53 μM, peptide 50 μM, 30 min 366-nm UV, absorbance 414 nm normalized to high-affinity positive control (100%), two exchanges, each in duplicate
Method: as §1, §2

Sequence | % responders (no. of responders/total no. of subjects tested), HCC [1] | % responders (no. of responders/total no. of subjects tested), Chronic [1] | % responders (no. of responders/total no. of subjects tested), Acute [1] | also measured
ALMPLYACI [p653-661] | 0 (0/10) % | 0 (0/9) % | 20 (4/20) % | –
ASFCGSPYSW [p166-175] | – | – | – | HLA binding class (binder/nonbinder), HLA-A*24:02 [2]: binder (binders (>25% of the positive control))
CLFKDWEEL | 50 (3/6) % | – | – | –
FLLSLGIHL [p573-581] | 0 (0/10) % | 13 (9/70) % | 59 (50/85)* % | –
GLSRYVARL [p453-461] | 0 (0/10) % | 6 (5/87) % | 50 (39/78)* % | –
GYPALMPLY [p650-658] | – | – | – | number of responsive donors as a fraction of the total number of subjects tested ([3]; HLA-A*24:02 donors): 1 of the 2; responding HBV resolvers [4]: none of the 3
HLSLRGLPV [x52-60] | 19 (3/16) % | 0 (0/20) % | – | HLA binding class (binder/nonbinder), HLA-B*08:01 [5]: binder (binders (>25% of the positive control))
HPAAMPHLL [p440-448] | – | – | 0 (0/12) % | –
HTLWKAGILYK [p149-159] | – | – | 5 (1/22) % | –
ILRGTSFVYV | – | 0 (0/9) % | 43 (3/7) % | –
KLVCSPAPC | 50 (3/6) % | – | – | –
KVGNFTGLY [p55-63] | – | – | 9 (2/22) % | –
KYTSFPWLL [p756-764] | – | 48 (10/21) % | 93 (13/14)* % | –
LVVDFSQFSR [p388-397] | – | – | 5 (1/22) % | –
NLSWLSLDV [p422-430] | 0 (0/10) % | – | – | –
NVSIPWTHK [p47-55] | – | – | 5 (1/21) % | –
QAFTFSPTYK [p665-674] | – | – | 14 (3/21) % | –
QLDPARDVL | 0 (0/10) % | 0 (0/20) % | 25 (1/4) % | –
RKYTSFPWLL [p755-764] | – | – | – | IFN-γ production in response to peptide, in words [3]: superior IFN-γ production compared to the known epitope p756-764 in both donors tested
SAICSVVRR | – | – | 9 (2/22) % | –
SLYADSPSV [p814-822] | – | 0 (0/22) % | 25 (11/44)* % | –
TLWKAGILYK [p150-159] | – | – | 18 (5/28) % | –
TPARVTGGVF [p365-374] | – | – | 17 (2/12) % | number of responsive donors as a fraction of the total number of subjects tested ([3]; HLA-B*07:02 donors): 4/4; HLA binding class (binder/nonbinder), HLA-B*07:02 [6]: binder (binders (>25% of the positive control))
VLGGCRHKL [x133-141] | 0 (0/10) % | 0 (0/20) % | – | –
VLHKRTLGL [x92-100] | 19 (3/16) % | 0 (0/20) % | – | HLA binding class (binder/nonbinder), HLA-B*08:01 [5]: binder (binders (>25% of the positive control))
YLHTLWKAGI [p147-156] | 0 (0/10) % | – | – | –
YMDDVVLGA [p549-557] | 0 (0/10) % | 0 (0/21) % | 15 (2/13) % | IFN-γ production in response to peptide, in words [3]: IFN-γ production was detected
YPALMPLYA [p651-659] | – | – | 0 (0/12) % | –
